Measured values reported in US6936585B2, “Corticotropin releasing factor 2 receptor agonists” (priority 2002, dated 2005).
Peptide text beside a SMILES is read from it.

What was measured:
CRF2R = molecular target: T1, CRF2R (Homo sapiens, UniProt Q13324); experiment: CRF2R agonist activation (EC50 / Emax), called comparative CRF binding; format: cell-based; conditions: for Emax: read-out: CRF2R Emax
T1 sequence (Q13324 1-411): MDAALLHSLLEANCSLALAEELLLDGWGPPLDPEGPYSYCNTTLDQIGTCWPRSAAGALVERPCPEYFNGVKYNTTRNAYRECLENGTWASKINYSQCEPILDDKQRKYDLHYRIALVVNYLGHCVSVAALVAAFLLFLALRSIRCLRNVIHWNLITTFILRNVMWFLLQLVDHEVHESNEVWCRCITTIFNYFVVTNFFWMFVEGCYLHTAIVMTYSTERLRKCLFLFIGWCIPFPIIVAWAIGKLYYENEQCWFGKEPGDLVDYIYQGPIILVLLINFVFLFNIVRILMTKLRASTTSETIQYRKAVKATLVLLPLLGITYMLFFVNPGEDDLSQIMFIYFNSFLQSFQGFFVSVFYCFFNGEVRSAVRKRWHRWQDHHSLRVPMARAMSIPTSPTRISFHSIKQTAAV
Procedure, shortened: (§1)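 Cells expressing human CRF1R or CRF2R are exposed to peptide or vehicle control, and receptor activation is read as cAMP induction, measured in cell lysates or via a CRE-linked reporter gene.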

CRF1R = molecular target: T2, CRF1R (Homo sapiens, UniProt P34998); experiment: CRF1R agonist activation (EC50 / Emax), called comparative CRF binding; format: cell-based; conditions: for Emax: read-out: CRF1R Emax
T2 sequence (P34998 24-415): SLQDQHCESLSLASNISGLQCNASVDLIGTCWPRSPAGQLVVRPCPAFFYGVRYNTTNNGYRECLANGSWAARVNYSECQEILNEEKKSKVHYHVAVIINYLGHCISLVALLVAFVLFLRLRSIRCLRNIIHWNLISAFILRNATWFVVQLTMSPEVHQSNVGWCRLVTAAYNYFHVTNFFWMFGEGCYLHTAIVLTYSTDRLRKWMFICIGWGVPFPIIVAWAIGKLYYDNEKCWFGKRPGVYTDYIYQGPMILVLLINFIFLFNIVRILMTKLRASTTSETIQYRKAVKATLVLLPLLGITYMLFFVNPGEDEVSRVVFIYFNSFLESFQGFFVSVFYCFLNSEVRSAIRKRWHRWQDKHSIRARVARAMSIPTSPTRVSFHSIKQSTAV
Procedure, shortened: as §1

For `CC[C@H](C)[C@H](N)C(=O)N[C@H](C(=O)N[C@@H](CC(C)C)C(=O)N[C@@H](CO)C(=O)N[C@@H](CC(C)C)C(=O)N[C@@H](CC(=O)O)C(=O)N[C@H](C(=O)N[C@H](C(=O)N[C@H](C(=O)NCC(=O)N[C@@H](CC(C)C)C(=O)N[C@@H](CC(C)C)C(=O)N[C@@H](CCC(N)=O)C(=O)N[C@H](C(=O)N[C@@H](CC(C)C)C(=O)N[C@@H](CC(C)C)C(=O)N[C@@H](CCC(=O)O)C(=O)N[C@@H](CCC(N)=O)C(=O)N[C@@H](C)C(=O)N[C@@H](CCCNC(=N)N)C(=O)N[C@@H](C)C(=O)N[C@@H](CCCNC(=N)N)C(=O)N[C@@H](C)C(=O)N[C@@H](C)C(=O)N[C@@H](CCCNC(=N)N)C(=O)N[C@@H](CCC(=O)O)C(=O)N[C@@H](CCC(N)=O)C(=O)N[C@@H](C)C(=O)N[C@H](C(=O)N[C@H](C(=O)N[C@@H](CC(N)=O)C(=O)N[C@@H](C)C(=O)N[C@@H](CCCNC(=N)N)C(=O)N[C@H](C(=O)N[C@@H](CC(C)C)C(=O)N[C@@H](C)C(=O)N[C@@H](CCCNC(=N)N)C(=O)N[C@H](C(N)=O)C(C)C)[C@@H](C)CC)[C@@H](C)O)[C@@H](C)O)[C@@H](C)CC)[C@@H](C)CC)C(C)C)C(C)C)C(C)C` [compound 214] (H-IVLSLDVVIGLLQILLEQARARAAREQATTNARILARV-NH2; N-terminus assumed), the Emax (CRF2R) was 60% and the Emax (CRF1R) was 4%.
Work on `CC[C@H](C)[C@H](NC(=O)[C@H](CCCNC(=N)N)NC(=O)[C@H](C)NC(=O)[C@H](CC(N)=O)NC(=O)[C@H](CCC(N)=O)NC(=O)[C@H](CCC(=O)O)NC(=O)[C@H](C)NC(=O)[C@H](CCCNC(=N)N)NC(=O)[C@H](CCC(=O)O)NC(=O)[C@H](CCCNC(=N)N)NC(=O)[C@H](CCC(N)=O)NC(=O)[C@H](CO)NC(=O)[C@H](CCC(N)=O)NC(=O)[C@@H](NC(=O)[C@H](CCCCN)NC(=O)[C@H](CCC(=O)O)NC(=O)[C@H](CC(C)C)NC(=O)[C@H](CCC(=O)O)NC(=O)[C@H](CC(C)C)NC(=O)[C@H](CC(C)C)NC(=O)[C@@H](NC(=O)[C@H](CCCNC(=N)N)NC(=O)[C@H](CC(C)C)NC(=O)[C@H](CC(C)C)NC(=O)[C@H](CC(C)C)NC(=O)[C@H](CC(C)C)NC(=O)[C@@H]1CCCN1C(=O)[C@H](CC(C)C)NC(=O)[C@H](CC(=O)O)NC(=O)[C@@H](NC(=O)[C@H](CO)NC(=O)[C@H](CC(C)C)NC(=O)[C@H](CO)NC(=O)[C@@H]1CCCN1C(=O)[C@H](CC(N)=O)NC(=O)[C@@H](N)CC(=O)O)[C@@H](C)CC)[C@@H](C)O)[C@@H](C)O)C(=O)N[C@@H](Cc1ccccc1)C(=O)N[C@@H](CC(=O)O)C(=O)N[C@@H](CCCNC(=N)N)C(=O)N[C@H](C(N)=O)C(C)C` [compound 338] (H-DNPSLSIDLPLLLLRTLLELEKTQSQRERAEQNARIFDRV-NH2; N-terminus assumed) yielded an Emax (CRF2R) of 77.5% and an Emax (CRF1R) of 41.1%.
In the case of `CC[C@H](C)[C@H](N)C(=O)N[C@H](C(=O)N[C@@H](CC(C)C)C(=O)N[C@@H](CO)C(=O)N[C@@H](CC(C)C)C(=O)N[C@@H](CC(=O)O)C(=O)N[C@H](C(=O)N1CCC[C@H]1C(=O)N[C@H](C(=O)NCC(=O)N[C@@H](CC(C)C)C(=O)N[C@@H](CC(C)C)C(=O)N[C@@H](CCC(N)=O)C(=O)N[C@H](C(=O)N[C@@H](CC(C)C)C(=O)N[C@@H](CC(C)C)C(=O)N[C@@H](CCC(=O)O)C(=O)N[C@@H](CCC(N)=O)C(=O)N[C@@H](CCC(=O)O)C(=O)N[C@@H](CCCNC(=N)N)C(=O)N[C@@H](C)C(=O)N[C@@H](CCCNC(=N)N)C(=O)N[C@@H](C)C(=O)N[C@@H](C)C(=O)N[C@@H](CCCNC(=N)N)C(=O)N[C@@H](CCC(=O)O)C(=O)N[C@@H](CCC(N)=O)C(=O)N[C@@H](C)C(=O)N[C@H](C(=O)N[C@H](C(=O)N[C@@H](CC(N)=O)C(=O)N[C@@H](C)C(=O)N[C@@H](CCCNC(=N)N)C(=O)N[C@H](C(=O)N[C@@H](CC(C)C)C(=O)N[C@@H](C)C(=O)N[C@@H](CCCNC(=N)N)C(=O)N[C@H](C(N)=O)C(C)C)[C@@H](C)CC)[C@@H](C)O)[C@@H](C)O)[C@@H](C)CC)[C@@H](C)CC)C(C)C)C(C)C` [compound 119] (H-IVLSLDVPIGLLQILLEQERARAAREQATTNARILARV-NH2; N-terminus assumed), the EC50 (CRF2R; read-out: CRF2R EC50) is reported as 3.57 nM, the Emax (CRF2R) is reported as 95% and the EC50 (CRF1R; read-out: CRF1R EC50) is reported as greater than 100 nM. The Emax (CRF1R) was 3%.
